In article PMC9843824 (Neuropharmacology, 2022):
“And” between values parts separate entries of the source, which are not always exact repeats. Identical values can stand only once. Like-named read-outs stand apart in the source and are kept apart here.

What was measured:
[1] = physchem; format: physicochemical
[2] = test system: neural activity regulated, high affinity MeAIB/Gln transport in mature rat hippocampal neurons; format: cell-based; details: for Result of screen 2 (block of MeAIB transport) / Block of activity regulated MeAIB transport, screen 2: compound 10 μM, 14C-MeAIB 5.4 μM; for IC50: read-out: IC50, inhibition of Ca2+-regulated (spontaneous, activity regulated) MeAIB transport, hippocampal neurons DIV 19–21, 2 min preincubation, 37 °C; for Mode of inhibition of Ca2+-regulated MeAIB transport: Michaelis-Menten kinetic analysis; for Reduction of initial velocity (V, Vmax) of MeAIB transport / Vmax of Ca2+-regulated MeAIB transport in presence of inhibitor: inhibitor 1 μM; for Vmax of Ca2+-regulated MeAIB transport in presence of inhibitor: control 107 ± 9
[3] = test system: KA rat model of TLE; details: for Neuroprotection, FJB staining in hippocampus at 3 d: 10 mg/kg i.p. 1 h and 4 h after SE
[4] = test system: Ca2+-independent (low affinity) MeAIB transport in mature rat hippocampal neurons; format: cell-based; details: at 15 min of uptake
[5] = in vitro; format: in vitro ADME; details: rat, plasma
[6] = target: NaV1.6 (Homo sapiens, UniProt Q9UQD0); experiment: Whole-cell patch-clamp, HEK cells transiently transfected with NaV1.6; format: cell-based; details: IC50 NaV1.6, holding potential −80 mV, inter-pulse interval 10 s (0.1 Hz)
NaV1.6, sequence (Q9UQD0 whole entry): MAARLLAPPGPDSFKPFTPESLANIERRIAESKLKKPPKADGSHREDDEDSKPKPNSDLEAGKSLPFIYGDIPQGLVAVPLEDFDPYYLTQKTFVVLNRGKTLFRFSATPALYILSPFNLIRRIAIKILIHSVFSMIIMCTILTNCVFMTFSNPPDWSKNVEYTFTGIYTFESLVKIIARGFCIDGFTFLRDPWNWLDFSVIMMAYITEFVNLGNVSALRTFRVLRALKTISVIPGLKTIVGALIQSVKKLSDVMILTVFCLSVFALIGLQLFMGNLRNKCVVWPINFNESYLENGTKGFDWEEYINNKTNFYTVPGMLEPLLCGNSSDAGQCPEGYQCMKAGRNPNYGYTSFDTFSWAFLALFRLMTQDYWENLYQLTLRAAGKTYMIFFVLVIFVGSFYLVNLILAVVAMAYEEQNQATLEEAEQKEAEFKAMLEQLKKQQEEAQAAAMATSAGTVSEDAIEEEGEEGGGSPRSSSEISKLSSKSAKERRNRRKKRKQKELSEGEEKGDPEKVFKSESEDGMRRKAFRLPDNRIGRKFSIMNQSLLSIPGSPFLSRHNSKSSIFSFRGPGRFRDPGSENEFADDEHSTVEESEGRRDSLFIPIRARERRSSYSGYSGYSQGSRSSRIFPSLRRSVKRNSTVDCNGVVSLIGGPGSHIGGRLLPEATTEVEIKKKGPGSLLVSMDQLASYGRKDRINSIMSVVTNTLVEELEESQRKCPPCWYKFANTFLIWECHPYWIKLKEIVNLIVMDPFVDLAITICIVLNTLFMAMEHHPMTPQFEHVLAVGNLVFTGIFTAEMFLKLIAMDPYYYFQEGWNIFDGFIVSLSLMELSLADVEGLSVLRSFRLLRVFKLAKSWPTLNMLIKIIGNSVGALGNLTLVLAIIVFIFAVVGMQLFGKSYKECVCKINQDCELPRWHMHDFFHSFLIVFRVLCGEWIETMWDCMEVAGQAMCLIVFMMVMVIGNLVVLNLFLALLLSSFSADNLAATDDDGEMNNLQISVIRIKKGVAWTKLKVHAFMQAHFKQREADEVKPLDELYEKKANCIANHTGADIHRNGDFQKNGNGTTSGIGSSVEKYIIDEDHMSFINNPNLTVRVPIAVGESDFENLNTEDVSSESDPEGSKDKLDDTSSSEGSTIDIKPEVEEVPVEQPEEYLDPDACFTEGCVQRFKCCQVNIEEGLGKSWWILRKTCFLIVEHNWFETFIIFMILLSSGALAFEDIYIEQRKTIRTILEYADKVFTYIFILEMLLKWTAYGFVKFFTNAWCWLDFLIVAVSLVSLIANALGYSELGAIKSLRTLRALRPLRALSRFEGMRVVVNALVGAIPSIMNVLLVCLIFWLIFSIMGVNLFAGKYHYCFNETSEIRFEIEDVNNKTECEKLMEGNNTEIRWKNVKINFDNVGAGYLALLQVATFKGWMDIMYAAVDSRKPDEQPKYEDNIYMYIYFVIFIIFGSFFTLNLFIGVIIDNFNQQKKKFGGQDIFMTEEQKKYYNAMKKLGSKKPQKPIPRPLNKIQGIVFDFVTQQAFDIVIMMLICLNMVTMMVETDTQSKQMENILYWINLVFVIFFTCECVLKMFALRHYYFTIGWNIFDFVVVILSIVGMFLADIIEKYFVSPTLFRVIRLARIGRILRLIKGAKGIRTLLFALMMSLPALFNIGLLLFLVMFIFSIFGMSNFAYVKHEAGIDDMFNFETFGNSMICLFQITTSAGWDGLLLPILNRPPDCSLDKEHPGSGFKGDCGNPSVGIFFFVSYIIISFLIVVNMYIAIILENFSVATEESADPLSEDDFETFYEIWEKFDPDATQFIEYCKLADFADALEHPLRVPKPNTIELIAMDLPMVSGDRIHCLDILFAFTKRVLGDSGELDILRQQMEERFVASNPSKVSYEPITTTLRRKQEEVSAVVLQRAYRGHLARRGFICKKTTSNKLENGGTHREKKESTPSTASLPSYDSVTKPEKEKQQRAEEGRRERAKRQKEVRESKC

[7] = format: in vivo; details: rat; for Oral availability / bioavailability: gavage vs i.p.
[8] = target: NaV1.2 (Mus musculus, UniProt B1AWN6); format: cell-based
NaV1.2, sequence (B1AWN6 whole entry): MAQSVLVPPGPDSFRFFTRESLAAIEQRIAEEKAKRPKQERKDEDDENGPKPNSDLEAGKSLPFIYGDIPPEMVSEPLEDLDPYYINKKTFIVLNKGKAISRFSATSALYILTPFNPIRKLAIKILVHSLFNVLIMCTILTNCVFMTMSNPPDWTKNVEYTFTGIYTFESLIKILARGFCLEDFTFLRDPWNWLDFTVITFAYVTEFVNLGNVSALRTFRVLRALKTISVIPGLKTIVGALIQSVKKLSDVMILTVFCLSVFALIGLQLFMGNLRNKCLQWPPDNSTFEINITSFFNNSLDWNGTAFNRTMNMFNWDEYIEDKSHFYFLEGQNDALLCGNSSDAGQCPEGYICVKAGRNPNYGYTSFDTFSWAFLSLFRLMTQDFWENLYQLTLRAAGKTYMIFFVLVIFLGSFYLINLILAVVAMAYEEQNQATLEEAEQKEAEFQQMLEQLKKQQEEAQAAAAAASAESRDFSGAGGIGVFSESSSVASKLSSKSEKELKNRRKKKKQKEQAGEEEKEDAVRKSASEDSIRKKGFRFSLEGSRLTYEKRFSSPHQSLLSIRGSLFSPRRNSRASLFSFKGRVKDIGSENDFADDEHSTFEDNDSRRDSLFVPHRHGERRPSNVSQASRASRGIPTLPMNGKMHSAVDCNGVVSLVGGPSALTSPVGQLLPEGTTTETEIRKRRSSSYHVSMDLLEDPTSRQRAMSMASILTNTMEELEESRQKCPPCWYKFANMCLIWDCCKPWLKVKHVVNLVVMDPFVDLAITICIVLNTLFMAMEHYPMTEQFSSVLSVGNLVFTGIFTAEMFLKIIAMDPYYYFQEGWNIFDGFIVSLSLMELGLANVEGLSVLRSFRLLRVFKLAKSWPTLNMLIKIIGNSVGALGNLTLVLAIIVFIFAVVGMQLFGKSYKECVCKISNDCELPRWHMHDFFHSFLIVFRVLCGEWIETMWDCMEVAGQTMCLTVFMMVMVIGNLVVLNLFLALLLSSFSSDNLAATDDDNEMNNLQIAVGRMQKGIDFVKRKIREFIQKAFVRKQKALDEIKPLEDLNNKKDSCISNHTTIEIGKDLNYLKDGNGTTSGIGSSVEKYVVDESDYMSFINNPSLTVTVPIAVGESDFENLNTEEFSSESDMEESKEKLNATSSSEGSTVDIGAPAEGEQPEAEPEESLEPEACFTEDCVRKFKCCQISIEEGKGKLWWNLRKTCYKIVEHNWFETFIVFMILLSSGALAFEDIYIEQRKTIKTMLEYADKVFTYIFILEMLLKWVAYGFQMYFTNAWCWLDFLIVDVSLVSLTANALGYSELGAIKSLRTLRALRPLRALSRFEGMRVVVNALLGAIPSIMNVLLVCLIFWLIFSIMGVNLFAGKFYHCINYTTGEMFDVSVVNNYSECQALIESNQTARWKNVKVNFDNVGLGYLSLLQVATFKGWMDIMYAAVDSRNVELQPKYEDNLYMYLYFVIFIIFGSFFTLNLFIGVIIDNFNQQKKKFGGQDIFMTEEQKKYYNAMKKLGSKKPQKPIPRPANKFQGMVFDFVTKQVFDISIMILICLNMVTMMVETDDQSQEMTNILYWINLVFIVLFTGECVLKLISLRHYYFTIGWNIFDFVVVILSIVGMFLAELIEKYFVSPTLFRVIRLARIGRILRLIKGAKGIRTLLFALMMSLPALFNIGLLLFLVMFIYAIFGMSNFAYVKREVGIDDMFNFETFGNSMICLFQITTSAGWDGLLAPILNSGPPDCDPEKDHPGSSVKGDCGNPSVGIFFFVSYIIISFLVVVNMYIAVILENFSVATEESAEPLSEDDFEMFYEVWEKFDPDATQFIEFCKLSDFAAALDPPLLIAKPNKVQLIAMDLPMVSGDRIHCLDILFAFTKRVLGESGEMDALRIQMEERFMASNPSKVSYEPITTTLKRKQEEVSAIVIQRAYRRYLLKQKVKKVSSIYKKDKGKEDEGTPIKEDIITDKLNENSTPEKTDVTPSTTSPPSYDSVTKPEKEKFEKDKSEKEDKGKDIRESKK

[9] = test system: Ca2+-activated K+ channels; details: ref Sankaranarayanan et al., 2009; cited from earlier work
[10] = 30 mg/kg i.p. 1 h and 4 h after SE, then once/day for 2 d

Question: For `Nc1nc(-c2ccc3ccccc3c2)c(Br)s1` [SKA-220, 5-Bromo-4-(naphthalen-2-yl)thiazol-2-amine], which logP [1] is on record?
Answer: 4.42

Question: And the “Result of screen 2 (block of MeAIB transport)” value [2]?
Answer: active

Question: For `Nc1nc(-c2ccc3ccccc3c2)c(Cl)s1` [SKA-379, 5-Chloro-4-(naphthalen-2-yl)thiazol-2-amine], which logP [1] is on record?
Answer: 4.42

Question: And the IC50 ([2]; 15 min uptake)?
Answer: 6.5 ± 0.25 µM

Question: What about the “Neuroprotection, FJB staining in hippocampus at 3 d” value (“Neuroprotection, FJB staining” below) ([3]; then once/day for 2 d) of the same molecule?
Answer: neuro-protective, but not as protective as riluzole

Question: What about the “Hippocampal neural injury by FJB staining and NeuN fluorescence at 3 d” value (“Hippocampal neural injury” for short) [3, 10] of the same molecule?
Answer: neuroprotective

Question: With `Nc1nc(-c2cccc3ccccc23)cs1` [SKA-75, 4-(Naphthalen-1-yl)thiazol-2-amine] as the molecule, how does the logP [1] read?
Answer: 4.05

Question: What about the “Block of activity regulated MeAIB transport, screen 2” value [2] of the same molecule?
Answer: ~ 50%

Question: And the IC50 ([2]; 15 min uptake)?
Answer: 4.5 ± 0.45 µM

Question: With `CNC(C)(C)C(=O)O` [MeAIB, methylaminoisobutryic acid, reference compound] as the molecule, how does the “Vmax of Ca2+-independent MeAIB transport” value [4] read?
Answer: 1793 ± 131 pmol/well

Question: And the “Vmax of Ca2+-dependent MeAIB transport” value ([2]; at 15 min of uptake)?
Answer: 1605 ± 139 pmol/well

Question: And the Km ([2]; read-out: Km for spontaneous Ca2+-dependent MeAIB transport, Michaelis-Menten analysis, 15 min uptake)?
Answer: 61 ± 5 µM

Question: Which logP [1] does the source give for `Nc1nc(-c2cccc3ccccc23)c(Br)s1` [SKA-219, 5-Bromo-4-(naphthalen-1-yl)thiazol-2-amine] here?
Answer: 4.76

Question: And the “Block of activity regulated MeAIB transport, screen 2” value [2]?
Answer: > 95%

Question: What about the fraction unbound [5] of the same molecule?
Answer: 0.005

Question: Which results are given for `Nc1nc(-c2cccc3ccccc23)c(Cl)s1` [SKA-378, 5-Chloro-4-(naphthalen-1-yl)thiazol-2-amine]?
Answer: logP [1]: 4.2; Mode of inhibition of Ca2+-regulated MeAIB transport [2]: noncompetitive; Reduction of initial velocity (V, Vmax) of MeAIB transport [2]: ~ 50%; Vmax of Ca2+-regulated MeAIB transport in presence of inhibitor [2]: 73 ± 6 pmol/min; IC50 ([2]; 15 min uptake): 1.1 ± 0.17 µM; fraction unbound [5]: 0.008; IC50 [6]: 28 µM and ~28 µM; Brain penetration [7]: excellent; Neuroprotection, FJB staining in hippocampus at 3 d ([3]; then once/day for 2 d): neuro-protective, but not as protective as riluzole; FJB staining in hippocampal CA1-4 neurons at 3 d [3, 10]: minimal; NeuN fluorescence in pyramidal neuron subfields at 3 d [3, 10]: largely prevents the diminished NeuN fluorescence; Rats still exhibiting maximal stage 5 seizures (Racine scale) ([3]; 30 mg/kg i.p. given before KA (pretreatment)): > 50%; FJB staining, hippocampal CA pyramidal neuron layers at 3 d ([3]; 30 mg/kg i.p. pretreatment): blocks neuronal hippocampal injury; NeuN fluorescent intensity in CA4, CA3, CA1 at 3 d ([3]; 30 mg/kg i.p. pretreatment): nearly identical to sham levels; Seizure severity vs non-treated KA-injected rats ([3]; 30 mg/kg i.p. pretreatment): did not show a significant reduction in seizure severity; Duration of KA-induced SE events ([3]; 30 mg/kg post-SE): not affected

Question: With `Nc1nc2ccc(OC(F)(F)F)cc2s1` [Riluzole, reference compound] as the molecule, how does the “Mode of inhibition of Ca2+-regulated MeAIB transport” value [2] read?
Answer: noncompetitive

Question: And the “Reduction of initial velocity (V, Vmax) of MeAIB transport” value [2]?
Answer: ~ 50%

Question: And the “Vmax of Ca2+-regulated MeAIB transport in presence of inhibitor” value [2]?
Answer: 54 ± 1 pmol/min

Question: And the IC50 ([2]; 15 min uptake)?
Answer: 0.86 ± 0.02 µM

Question: And the “Spontaneous MeAIB transport after 15 min in presence of inhibitor” value ([2]; riluzole 10 μM, 23.4 μM 14C-MeAIB, total without inhibitor 619±21)?
Answer: 133 ± 8 pmol/well

Question: And the IC50 [6]?
Answer: 115 ± 2 µM

Question: What about the “Frequency dependence of NaV1.2 block” value [8] of the same molecule?
Answer: not frequency dependent

Question: What about the “Neuroprotection, FJB staining” value ([3]; then once/day for 2 d) of the same molecule?
Answer: prevents acute neural injury altogether

Question: And the “Behaviour of rats after treatment” value ([3]; 10 mg/kg post-SE)?
Answer: relatively immobile/sedated

Question: And the “Duration of KA-induced SE events” value ([3]; 10 mg/kg post-SE, untreated 4–6 h)?
Answer: less than 2 h

Question: And the “Behaviour of rats at higher doses” value ([3]; e.g., 30 mg/kg)?
Answer: render rats immobile and unresponsive

Question: What about the “Neural injury in hippocampal limbic areas” value ([3]; post-treated) of the same molecule?
Answer: largely prevented neural injury

Question: With `Nc1nc(-c2ccc(OC(F)(F)F)cc2)c(Cl)s1` [SKA-376, 5-Chloro-4-(4-(trifluoromethoxy)phenyl)thiazol-2-amine] as the molecule, how does the logP [1] read?
Answer: 4.53

Question: What about the IC50 ([2]; 15 min uptake) of the same molecule?
Answer: 4.3 ± 0.4 µM

Question: What about the fraction unbound [5] of the same molecule?
Answer: 0.015

Question: And the “Hippocampal neural injury” value [3, 10]?
Answer: did not significantly reduce neural injury

Question: For `Nc1nc(-c2ccc3ccccc3c2)cs1` [SKA-76, 4-(Naphthalen-2-yl)thiazol-2-amine], which logP [1] is on record?
Answer: 4.05

Question: What about the “Block of activity regulated MeAIB transport, screen 2” value [2] of the same molecule?
Answer: ~ 50%

Question: And the IC50 ([2]; 15 min uptake)?
Answer: 6.2 ± 0.9 µM

Question: With `Cc1ccc(-c2nc(N)sc2Cl)c2ccccc12` [SKA-377, 5-Chloro-4-(4-methylnaphthalen-1-yl)thiazol-2-amine] as the molecule, how does the logP [1] read?
Answer: 4.91

Question: And the fraction unbound [5]?
Answer: 0.01

Question: What about the “Oral availability / bioavailability” value [7] of the same molecule?
Answer: excellent oral availability

Question: And the “Neuroprotection, FJB staining” value ([3]; then once/day for 2 d)?
Answer: neuro-protective, but not as protective as riluzole

Question: What about the “Hippocampal neural injury” value [3, 10] of the same molecule?
Answer: neuroprotective

Question: Which logP [1] does the source give for `Cc1ccc(-c2nc(N)sc2Br)c2ccccc12` [SKA-375, 5-Bromo-4-(4-methylnaphthalen-1-yl)thiazol-2-amine] here?
Answer: 5.25

Question: What does the source list for `Nc1nc(-c2ccc(OC(F)(F)F)cc2)cs1` [SKA-41, 4-(4-(Trifluoromethoxy)phenyl)thiazol-2-amine]?
Answer: logP [1]: 4.58; Activity on Ca2+-activated K+ channels [9]: inactive; fraction unbound [5]: 0.043; Brain penetration [7]: excellent; Oral availability / bioavailability [7]: excellent; Neuroprotection, FJB staining in hippocampus at 3 d ([3]; then once/day for 2 d): neuro-protective, but not as protective as riluzole

Question: With `COc1ccc(CCN(C)CCCC(C#N)(c2ccc(OC)c(OC)c2)C(C)C)cc1OC` (stereo not drawn) [verapamil, reference compound] as the molecule, how does the “Spontaneous MeAIB transport after 15 min in presence of inhibitor” value [2] read?
Answer: 119 ± 9 pmol/well

Question: Which logP [1] does the source give for `Cc1ccc(-c2csc(N)n2)c2ccccc12` [SKA-190, 4-(4-Methylnaphthalen-1-yl)thiazol-2-amine] here?
Answer: 4.53

Question: And the “Result of screen 2 (block of MeAIB transport)” value [2]?
Answer: active

Question: Which logP [1] does the source give for `Nc1nc(-c2ccc3ccccc3c2)c(F)s1` [SKA-382, 5-Fluoro-4-(naphthalen-2-yl)thiazol-2-amine] here?
Answer: 4.14
